One block for each molecule: values may come before it. Activity calls are given as the source filed them. Rule as the data show it, for most assays here: actives have a measured EC50 and inactives only a lower limit.
Tests used:
[1] = NIH3T3 cell viability loss – ATP luminescence, mouse fibroblasts, counter-screen, dose response (AID 2010); format: functional, cell-based;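 also: cells exposed to compound for about 90 hours before reading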
[2] = Trypanosoma cruzi growth suppression in host cells – NIH3T3 host cells, beta-gal luminescence, confirmation (AID 2044); format: functional, cell-based;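 also: intracellular parasites grown in NIH/3T3 mouse fibroblasts as host cells; luminescent beta-galactosidase reporter signal from transgenic T. cruzi replicating inside host cells; inhibitors lower the luminescence signal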
Cytochrome P450 2C9 = Cytochrome P450 2C9 (Homo sapiens, UniProt P11712)
Cytochrome P450 1A2 = target: T1, Cytochrome P450 1A2 (Homo sapiens, UniProt P05177);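 also: PubChem cytochrome P450 panel assay, CYP1A2 panel member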
T1 sequence (P05177 whole entry): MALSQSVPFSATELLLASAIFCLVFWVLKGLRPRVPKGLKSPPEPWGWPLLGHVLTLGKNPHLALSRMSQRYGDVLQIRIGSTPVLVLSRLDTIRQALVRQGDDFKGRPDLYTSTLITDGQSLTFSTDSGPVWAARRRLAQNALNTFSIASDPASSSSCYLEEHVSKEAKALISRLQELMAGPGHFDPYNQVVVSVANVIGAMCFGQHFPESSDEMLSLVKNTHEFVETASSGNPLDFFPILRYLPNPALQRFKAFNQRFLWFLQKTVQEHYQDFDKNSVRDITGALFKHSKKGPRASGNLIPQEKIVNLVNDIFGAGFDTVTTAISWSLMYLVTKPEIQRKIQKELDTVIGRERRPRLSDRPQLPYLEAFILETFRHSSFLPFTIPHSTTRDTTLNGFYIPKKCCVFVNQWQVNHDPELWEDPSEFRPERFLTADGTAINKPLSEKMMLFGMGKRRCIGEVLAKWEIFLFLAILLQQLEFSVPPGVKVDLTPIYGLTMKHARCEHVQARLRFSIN

Cytochrome P450 3A4 = Cytochrome P450 3A4 (Homo sapiens, UniProt P08684);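 also: CYP3A4 tested as one member of a cytochrome P450 panel screen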
Streptococcus = test: GAS UMAA2166 growth inhibition – luminescence, BacTiterGlo, counter-screen for streptokinase expression inhibitor project, dose response (AID 1915); format: functional, organism-based;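 also: potency for reduction of bacterial viability or growth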
[3] = tested on: Streptococcus sp. 'group A'; test: Streptococcus pyogenes SK(-)GAS viability under kanamycin – luminescence, BacTiterGlo, confirmation, counter-screen for streptokinase expression inhibitor project, dose response (AID 1900); format: functional, organism-based

Cytochrome P450 2C9, sequence (P11712 whole entry): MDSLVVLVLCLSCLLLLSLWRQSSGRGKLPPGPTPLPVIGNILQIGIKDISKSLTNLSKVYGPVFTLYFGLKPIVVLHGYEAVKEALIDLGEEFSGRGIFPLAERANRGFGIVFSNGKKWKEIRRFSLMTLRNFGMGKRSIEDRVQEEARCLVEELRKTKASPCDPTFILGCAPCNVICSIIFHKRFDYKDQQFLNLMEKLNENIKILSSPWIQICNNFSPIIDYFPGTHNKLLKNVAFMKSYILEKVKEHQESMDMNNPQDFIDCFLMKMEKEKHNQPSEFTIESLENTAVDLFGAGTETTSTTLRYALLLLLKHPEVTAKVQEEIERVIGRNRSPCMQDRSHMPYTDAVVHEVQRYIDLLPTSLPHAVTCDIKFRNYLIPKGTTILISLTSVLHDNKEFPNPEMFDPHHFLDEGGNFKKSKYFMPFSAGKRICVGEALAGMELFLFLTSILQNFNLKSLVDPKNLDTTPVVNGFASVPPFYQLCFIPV
Cytochrome P450 3A4, sequence (P08684 whole entry): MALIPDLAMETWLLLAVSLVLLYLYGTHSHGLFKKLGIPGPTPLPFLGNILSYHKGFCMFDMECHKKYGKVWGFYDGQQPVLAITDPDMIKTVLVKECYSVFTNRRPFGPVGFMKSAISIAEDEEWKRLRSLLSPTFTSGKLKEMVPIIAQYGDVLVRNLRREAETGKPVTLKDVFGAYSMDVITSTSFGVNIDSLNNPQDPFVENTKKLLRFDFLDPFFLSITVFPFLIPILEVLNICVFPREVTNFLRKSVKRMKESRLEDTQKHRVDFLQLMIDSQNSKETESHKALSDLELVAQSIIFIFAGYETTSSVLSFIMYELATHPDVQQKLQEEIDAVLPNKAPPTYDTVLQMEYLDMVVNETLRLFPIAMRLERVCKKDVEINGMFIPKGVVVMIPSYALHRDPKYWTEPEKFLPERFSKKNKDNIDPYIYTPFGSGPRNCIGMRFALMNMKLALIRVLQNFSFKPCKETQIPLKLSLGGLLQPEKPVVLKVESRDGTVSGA

AC50 (Cytochrome P450 2C9): 0.00562 µM (inconclusive)
Structure (SMILES): O=C(NNC(=O)c1ccccc1)C(=O)N1CCCCC1

AC50 (Cytochrome P450 2C9): 39.8 µM (inconclusive)
AC50 (Cytochrome P450 1A2): 15.8 µM (inconclusive)
Structure (SMILES): COc1ccc(-c2nc3cnc(N4CCN(C)CC4)nc3n(-c3ccc(OC)cc3)c2=O)cc1

AC50 (Cytochrome P450 3A4): 5.01 µM (inconclusive)
Structure (SMILES): CC(=O)OC[C@H]1O[C@@H](O/N=C(\C)CCN2CCc3nc(-c4ccccc4)c(-c4ccccc4)cc3C2)[C@H](OC(C)=O)[C@@H](OC(C)=O)[C@H]1OC(C)=O

AC50 (Cytochrome P450 2C9): 5.01 µM (inconclusive)
Structure (SMILES): COC(=O)C/C=C\[C@@H](C)[C@@H](/C=N\OCC[C@H]1C=C[C@H](OC(C)=O)[C@@H](COC(C)=O)O1)NS(=O)(=O)c1ccc(C)cc1

AC50 (Cytochrome P450 3A4): 3.16 µM (inconclusive)
Structure (SMILES): Cc1ccccc1OCC(=O)N/N=C1\CCOc2c(C)cccc21

AC50 (Cytochrome P450 3A4): 20 µM (inconclusive)
AC50 (Cytochrome P450 1A2): 3.16 µM (inconclusive)
Structure (SMILES): N#CCCn1c(=O)c(-c2cc(F)cc(F)c2)nc2cnc(N3CCOCC3)nc21

AC50 (Cytochrome P450 3A4): 22.4 µM (inconclusive)
Structure (SMILES): Cc1cccc(NC(=O)Cn2cccc2)c1

AC50 (Cytochrome P450 2C9): 15.8 µM (inconclusive)
Structure (SMILES): Cc1nc2cnc(N(C)C)nc2n(C2CC2)c1=O

AC50 (Cytochrome P450 2C9): 25.1 µM (inconclusive)
AC50 (Cytochrome P450 1A2): 15.8 µM (inconclusive)
Structure (SMILES): C[C@@H](C(=O)NCCF)[C@H]1C[C@]1(C)[C@H](NC(=O)OCc1ccccc1)c1ccccc1

AC50 (Cytochrome P450 1A2): 20 µM (inconclusive)
Structure (SMILES): CCOC(=O)c1cc2c(ccn2C)n1CC(=O)N1CCCC(C)C1 (centres undefined)

AC50 (Cytochrome P450 2C9): 22.4 µM (inconclusive)
Structure (SMILES): CSc1nsc(SC)c1NC(=O)Nc1ccccn1

AC50 (Cytochrome P450 1A2): 0.631 µM (inconclusive)
Structure (SMILES): Cc1ccc(S(=O)(=O)Nc2ccccc2C(=O)c2ccc(C)c(C)c2)cc1

AC50 (Cytochrome P450 2C9): 31.6 µM (inconclusive)
Structure (SMILES): CCOc1ccc(C(F)(F)F)cc1NC(C)=O

AC50 (Cytochrome P450 3A4): 3.98 µM (inconclusive)
Structure (SMILES): Cc1ccc(S(=O)(=O)N[C@H]2COC(=O)[C@H](C)COC(=O)[C@H](C)NC(=O)C/C=C\[C@H]2C)cc1

AC50 (Cytochrome P450 3A4): 25.1 µM (inconclusive)
Structure (SMILES): CC(=O)N1CCC[C@@]2(CCN(c3ccccc3)C2)C1

AC50 (Cytochrome P450 3A4): 15.8 µM (inconclusive)
Structure (SMILES): CCOC(=O)c1nn(-c2ccccc2)c(-c2ccccc2)c1C(=O)c1ccccc1

AC50 (Cytochrome P450 2C9): 0.00562 µM (inconclusive)
Structure (SMILES): Cc1ccc2c(c1)N(CCC(=O)NCc1ccc3c(c1)OCO3)C(=O)CO2

AC50 (Cytochrome P450 2C9): 28.2 µM (inconclusive)
AC50 (Cytochrome P450 3A4): 3.98 µM (inconclusive)
Structure (SMILES): CCc1ccc(NC(=O)CSc2nc3cc(C(=O)OC)ccc3c(=O)n2Cc2ccco2)cc1

AC50 (Cytochrome P450 1A2): 25.1 µM (inconclusive)
Structure (SMILES): CN(C)C(=O)c1ccc(-c2cc(N(C)Cc3ccco3)ncn2)cc1

AC50 (Cytochrome P450 2C9): 31.6 µM (inconclusive)
AC50 (Cytochrome P450 3A4): 15.8 µM (inconclusive)
Structure (SMILES): COc1ccc(OC)c(NC(=O)Cn2cccc2)c1

AC50 (Cytochrome P450 3A4): 15.8 µM (inconclusive)
Structure (SMILES): CN(c1ccc(C(=O)NC2CC3CCC2C3)cc1)S(C)(=O)=O (centres undefined)

AC50 (Cytochrome P450 1A2): 20 µM (inconclusive)
Structure (SMILES): Cc1ccc(CN2CC34C=CC(O3)C(C(=O)NCc3ccco3)C4C2=O)cc1 (centres undefined)

AC50 (Cytochrome P450 1A2): 1 µM (inconclusive)
Structure (SMILES): O=c1c(-c2cc(F)cc(F)c2)nc2cnc(N3CCOCC3)nc2n1C1CC1

AC50 (Cytochrome P450 1A2): 20 µM (inconclusive)
Structure (SMILES): O=C(c1ccncc1)N1CCC2(CC1)CCN(c1ncccn1)CC2

The remaining lines, values behind:

Structure (SMILES): COc1ccc(/C=C/C(=O)Nc2cc(C)nn2-c2nc3ccccc3[nH]2)cc1
EC50 [1]: 9.28 µM (active)
EC50 [2]: 1.71 µM (active)

Structure (SMILES): O=[N+]([O-])c1ccc(S(=O)(=O)Nc2ccc(-c3ccc(N4CCCC4)nn3)cc2)cc1
EC50 [1]: > 60 µM (not active)
EC50 [2]: 0.159 µM (active)

Structure (SMILES): CC(=O)N(CCCN(C)C)CCC(C)CCC=C(C)C (centres undefined)
EC50 [1]: > 60 µM (not active)
EC50 [2]: 0.324 µM (active)

Structure (SMILES): Cc1cc(C)n2nc(-c3ccsc3-n3c(C)ccc3C)cc2n1
EC50 [1]: > 60 µM (not active)
EC50 [2]: 2.77 µM (active)

Structure (SMILES): COCCCNCCCOc1ccc(C(C)(C)c2ccccc2)cc1
EC50 [1]: > 60 µM (inconclusive)
EC50 [2]: 0.567 µM (active)

Structure (SMILES): CC(C)c1ccc2oc(-c3cc(N)ccc3O)nc2c1
EC50 [1]: 10.8 µM (active)
EC50 [2]: 2.88 µM (active)

Structure (SMILES): C/C(=C\c1ccc(Cl)cc1)C(C)(C)C(=O)O
AC50 (Cytochrome P450 2C9): 3.16 µM (inconclusive)

Structure (SMILES): CCCCNc1c(-c2ccc(SC3CCCCC3)c(OC)c2)nc2ccc(Cl)cn12
EC50 [1]: > 60 µM (not active)
EC50 [2]: 1.43 µM (active)

Structure (SMILES): C/C(N)=C(/C#N)C(=O)CSc1nc(-c2ccccc2)c(-c2ccccc2)o1
EC50 [1]: > 60 µM (not active)
EC50 [2]: 1.43 µM (active)

Structure (SMILES): c1ccc2c(NC3C4CC5CC(C4)CC3C5)nc(N3CCOCC3)nc2c1 (centres undefined)
EC50 [1]: > 30 µM (not active)
EC50 [2]: 1.39 µM (active)

Structure (SMILES): COc1ncc2nc(-c3cc(F)cc(F)c3)c(=O)n(-c3ccccc3)c2n1
AC50 (Cytochrome P450 1A2): 1.26 µM (inconclusive)

Structure (SMILES): COC(=O)C[C@@H]1O[C@H]1[C@H](C)[C@@H](OC)C(C)C
AC50 (Cytochrome P450 2C9): 3.16 µM (inconclusive)

Structure (SMILES): O=c1ccn([C@@H]2O[C@@H](COP(=O)(O)OP(=O)(O)O)[C@H](O)[C@@H]2O)c(=O)[nH]1
AC50 (Cytochrome P450 3A4): 0.794 µM (inconclusive)

Structure (SMILES): COc1cc(/C=N/Nc2nc3ccccc3s2)cc([N+](=O)[O-])c1O
EC50 (Streptococcus): > 150 µM (not active)
EC50 [3]: 9.74 µM (active)

Structure (SMILES): C/C(Cn1cnc([N+](=O)[O-])n1)=N\NC(=O)c1ccccc1O
EC50 [1]: > 60 µM (not active)
EC50 [2]: 1.73 µM (active)

Structure (SMILES): Cc1ccc(Cn2nnc3c(O)nc(C4CCN(S(=O)(=O)c5cc(C)ccc5C)CC4)nc32)cc1
EC50 (Streptococcus): 96 µM (active)
EC50 [3]: 9.94 µM (active)

Structure (SMILES): COc1ccc(NC(=O)N2CC[C@@]3(CCCN(C(=O)c4csnn4)C3)C2)cc1
AC50 (Cytochrome P450 3A4): 31.6 µM (inconclusive)

Structure (SMILES): Cc1nn(Cc2cccc(Oc3ccccc3)c2)c(C)c1NC(=O)NC12CC3CC(CC(C3)C1)C2
EC50 [1]: > 60 µM (not active)
EC50 [2]: 1.29 µM (active)

Structure (SMILES): Cc1ccc(NC(=S)N(CCCN2CCOCC2)Cc2cccnc2)cc1C
EC50 [1]: 10.9 µM (active)
EC50 [2]: 1.19 µM (active)

Structure (SMILES): COc1ccc(O[C@H]2C=C[C@@H](c3ccccc3)O[C@@H]2CON=C(C)C)cc1
AC50 (Cytochrome P450 3A4): 3.98 µM (inconclusive)

Structure (SMILES): Cc1cc(C)cc(Nc2c([N+](=O)[O-])nn(-c3ccc4c(c3)OCCO4)[n+]2[O-])c1
EC50 [1]: > 60 µM (not active)
EC50 [2]: 0.16 µM (active)

Structure (SMILES): O=C(Nc1ccccc1)c1ccccc1CC[N+](=O)[O-]
AC50 (Cytochrome P450 3A4): 7.94 µM (inconclusive)

Structure (SMILES): OC(COc1ccc(OCc2ccccc2)cc1)CN1CCCCC1 (centres undefined)
EC50 [1]: > 60 µM (not active)
EC50 [2]: 21.4 µM (active)

Structure (SMILES): COc1ccc(-c2cc3ncnc(O)c3s2)cc1
EC50 (Streptococcus): 17.8 µM (active)
EC50 [3]: 3.63 µM (active)

Structure (SMILES): CCOc1ccc(CN2CCN(Cc3cnc(-c4ccccc4)s3)CC2CCO)cc1 (centres undefined)
EC50 [1]: > 60 µM (not active)
EC50 [2]: 0.201 µM (active)

Structure (SMILES): COc1ccc(CC(=O)Nc2nc(-c3ccncc3)cs2)cc1
EC50 [1]: > 60 µM (not active)
EC50 [2]: 2.74 µM (active)

— ChEMBL document CHEMBL1201862, “PubChem BioAssay data set” (2004)
